Patent US20220389003A1, “4-SUBSTITUTED INDOLE AND INDAZOLE SULFONAMIDO DERIVATIVES AS PARG INHIBITORS” (IDEAYA BIOSCIENCES, INC., priority 2019, published 2022)

Assays:
PARG [1] = biological target: T1, PARG (Homo sapiens, UniProt Q86W56); experiment: Inhibition of PARG cellular assay (PAR foci in HeLa cells after MMS); assay type: cell-based; design: endogenous in cells; host or cells: HeLa; conditions: compound 1 h then MMS 1 h
Procedure, shortened: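 HeLa cells pretreated with compound for 1 h, then given MMS for a further 1 h, fixed and immunostained for PAR polymer. High-content imaging quantified nuclear PAR foci intensity (PAR Foci IC50) and percent cells with foci signal >1.3 (PAR % positive IC50).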

PARG [2] = biological target: T1, PARG; experiment: Inhibition of PARG enzymatic assay (TR-FRET enzymatic IC50 assay); assay type: biochemical; design: purchased Peak Proteins; conditions: hPARG 250 pM, biotinylated-PARylated PARP substrate 30 nM
Procedure, shortened: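 Compound preincubated 1 h with 250 pM His-tagged hPARG, then 30 nM biotinylated PARylated hPARP1 substrate added for 10 min; buffer 50 mM Tris-HCl pH 7.4, EDTA/EGTA, 1 mM DTT, 23° C. TR-FRET read after 1 h with anti-His ULight antibody and streptavidin-europium; inhibition scaled between DMSO and no-enzyme controls.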

[3] = system: HCC1806-XRCC1 KD (knock down) cells; experiment: Cellular viability assay (Cell Titer-Glo); assay type: cell-based; conditions: 96 h, HCC1806-shXRCC1 cells, 4 days of incubation, read-out: PARGi cell viability
Experimental: HCC1806-XRCC1 KD (knock down) cells were plated at 2000 cells/well in 96-well white plates with clear flat bottom. After 24 hours, the compounds of the disclosure were added starting at 30 μM for a 9-point dose response curve at 1:3 dilution. The compounds of the disclosure were added by Tecan digital dispenser excluding the outermost wells of the plate. All treatments were done in duplicates. After 4 days of incubation, 50 ul of Cell Titer-Glo (Promega) was added per well. After incubation with the reagent for 15 minutes, luminescence was read using a plate reader (TECAN). Average values of DMSO treated wells in a plate was calculated. All data points were normalized to that of the average DMSO value. The % of control for each sample compared to DMSO treated control samples. Curves are fit as % of control vs. log [compound concentration] using a 4 parameter inhibition model (Levenberg-Marquardt algorithm):
Fit=(A+((B−A)/(1+((C/x)^D))))

T1 sequence (Q86W56 whole entry): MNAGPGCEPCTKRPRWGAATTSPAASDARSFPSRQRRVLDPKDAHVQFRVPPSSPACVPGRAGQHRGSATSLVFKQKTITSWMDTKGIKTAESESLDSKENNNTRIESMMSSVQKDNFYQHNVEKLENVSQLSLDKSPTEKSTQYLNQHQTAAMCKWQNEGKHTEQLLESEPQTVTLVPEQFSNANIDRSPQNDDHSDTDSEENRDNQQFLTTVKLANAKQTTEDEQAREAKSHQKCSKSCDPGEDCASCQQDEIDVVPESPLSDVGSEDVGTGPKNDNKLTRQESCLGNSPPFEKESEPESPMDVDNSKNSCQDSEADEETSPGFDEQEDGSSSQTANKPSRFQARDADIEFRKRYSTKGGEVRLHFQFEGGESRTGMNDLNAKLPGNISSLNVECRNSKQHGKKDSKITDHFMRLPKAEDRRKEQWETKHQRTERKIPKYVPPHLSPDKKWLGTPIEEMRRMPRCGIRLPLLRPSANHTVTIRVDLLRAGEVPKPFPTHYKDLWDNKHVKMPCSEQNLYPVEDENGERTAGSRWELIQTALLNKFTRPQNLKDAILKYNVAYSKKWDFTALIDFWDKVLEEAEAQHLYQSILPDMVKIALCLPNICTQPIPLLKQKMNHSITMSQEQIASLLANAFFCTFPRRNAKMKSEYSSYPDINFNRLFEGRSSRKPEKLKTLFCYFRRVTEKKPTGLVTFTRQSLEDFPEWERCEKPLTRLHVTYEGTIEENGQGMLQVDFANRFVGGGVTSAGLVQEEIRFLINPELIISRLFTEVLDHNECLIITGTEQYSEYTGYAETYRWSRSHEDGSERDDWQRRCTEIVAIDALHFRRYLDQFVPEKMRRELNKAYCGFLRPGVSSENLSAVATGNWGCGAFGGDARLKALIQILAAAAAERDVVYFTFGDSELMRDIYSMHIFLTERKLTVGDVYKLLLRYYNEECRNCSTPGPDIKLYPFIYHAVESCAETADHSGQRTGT

IC50 (PARG [1]) | IC50 (PARG [2]) | IC50 [3] | SMILES
300 to 1000 nM | 100 to 300 nM | 10000 to 20000 nM | CN(C)C(=O)C1CCN(c2cc(S(=O)(=O)NC3(C#N)CC3)cc3c2cnn3-c2nnc(C(F)F)s2)CC1 [Example 51, [1-(1-[5-(difluoromethyl)(1,3,4-thiadiazol-2-yl)]-6-{[(cyanocyclopropyl)amino]sulfonyl}(1H-indazol-4-yl))(4-piperidyl)]-N,N-dimethylcarboxamide]
≤ 100 nM | ≤ 100 nM | < 1000 nM | N#CC1(NS(=O)(=O)c2cc(N3CCC4(CC3)COC4)c3cnn(-c4nnc(C(F)F)s4)c3c2)CC1 [Example 25, 1-[({1-[5-(difluoromethyl)(1,3,4-thiadiazol-2-yl)]-4-(2-oxa-7-azaspiro[3.5]non-7-yl)-1H-indazol-6-yl}sulfonyl)amino]cyclopropanecarbonitrile]
300 to 1000 nM | 100 to 300 nM | 1000 to 10000 nM | N#CC1(NS(=O)(=O)c2cc(N3CCC4(CCO4)CC3)c3cnn(-c4nnc(C(F)F)s4)c3c2)CC1 [Example 41, 1-[({1-[5-(difluoromethyl)(1,3,4-thiadiazol-2-yl)]-4-(1-oxa-7-azaspiro[3.5]non-7-yl)-1H-indazol-6-yl}sulfonyl)amino]cyclopropanecarbonitrile]
300 to 1000 nM | 1000 to 10000 nM | 1000 to 10000 nM | N#CC1(NS(=O)(=O)c2cc(N3CCN(c4ccccn4)CC3)c3cnn(-c4nnc(C(F)F)s4)c3c2)CC1 [Example 93, 1-[({1-[5-(difluoromethyl)(1,3,4-thiadiazol-2-yl)]-4-(4-(2-pyridyl)piperazinyl)-1H-indazol-6-yl}sulfonyl)amino]cyclopropanecarbonitrile]
1000 to 10000 nM | ≤ 100 nM | 1000 to 10000 nM | CN1CC[C@H](C(=O)N2CCN(c3cc(S(=O)(=O)NC4(C#N)CC4)cc4c3cnn4-c3nnc(C(F)F)s3)CC2)C1 [Example 68, 1-{[(4-{4-[((3S)-1-methylpyrrolidin-3-yl)carbonyl]piperazinyl}-1-[5-(difluoromethyl)(1,3,4-thiadiazol-2-yl)]-1H-indazol-6-yl)sulfonyl]amino}cyclopropanecarbonitrile]
≤ 100 nM | ≤ 100 nM | < 1000 nM | CN(C)C(=O)N1CCN(c2cc(S(=O)(=O)NC3(C#N)CC3)cc3c2cnn3-c2nnc(C(F)F)s2)CC1 [Example 43, [4-(1-[5-(difluoromethyl)(1,3,4-thiadiazol-2-yl)]-6-{[(cyanocyclopropyl)amino]sulfonyl}(1H-indazol-4-yl))piperazinyl]-N,N-dimethylcarboxamide]
≤ 100 nM | ≤ 100 nM | < 1000 nM | CCN(C)C(=O)N1CCN(c2cc(S(=O)(=O)NC3(C#N)CC3)cc3c2cnn3-c2nnc(C(F)F)s2)CC1 [Example 32, [4-(1-[5-(difluoromethyl)(1,3,4-thiadiazol-2-yl)]-6-{[(cyanocyclopropyl)amino]sulfonyl}(1H-indazol-4-yl))piperazinyl]-N-ethyl-N-methylcarboxamide]
300 to 1000 nM | 300 to 1000 nM | 1000 to 10000 nM | N#CC1(NS(=O)(=O)c2cc(N3CCC(F)CC3)c3cnn(-c4nnc(C(F)F)s4)c3c2)CC1 [Example 104, 1-[({1-[5-(difluoromethyl)(1,3,4-thiadiazol-2-yl)]-4-(4-fluoropiperidyl)-1H-indazol-6-yl}sulfonyl)amino]cyclopropanecarbonitrile]
1000 to 10000 nM | 100 to 300 nM | 1000 to 10000 nM | CN1CCC2(CCN(c3cc(S(=O)(=O)NC4(C#N)CC4)cc4c3cnn4-c3nnc(C(F)F)s3)CC2)C1 [Example 46, 1-[({1-[5-(difluoromethyl)(1,3,4-thiadiazol-2-yl)]-4-(2-methyl-2,8-diazaspiro[4.5]dec-8-yl)-1H-indazol-6-yl}sulfonyl)amino]cyclopropanecarbonitrile]
100 to 300 nM | ≤ 100 nM | 1000 to 10000 nM | N#CC1(NS(=O)(=O)c2cc(N3CCN(c4cccnn4)CC3)c3cnn(-c4nnc(C(F)F)s4)c3c2)CC1 [Example 95, 1-[({1-[5-(difluoromethyl)(1,3,4-thiadiazol-2-yl)]-4-(4-pyridazin-3-ylpiperazinyl)-1H-indazol-6-yl}sulfonyl)amino]cyclopropanecarbonitrile]
1000 to 10000 nM | 300 to 1000 nM | 10000 to 20000 nM | N#CC1(NS(=O)(=O)c2cc(-c3ccccn3)c3cnn(-c4nnc(C(F)F)s4)c3c2)CC1 [Example 14, 1-[({1-[5-(difluoromethyl)(1,3,4-thiadiazol-2-yl)]-4-(2-pyridyl)-1H-indazol-6-yl}sulfonyl)amino]cyclopropanecarbonitrile]
300 to 1000 nM | 300 to 1000 nM | 1000 to 10000 nM | N#CC1(NS(=O)(=O)c2cc(C3=CCC4(CC3)COC4)c3cnn(-c4nnc(C(F)F)s4)c3c2)CC1 [Example 7, 1-[({1-[5-(difluoromethyl)(1,3,4-thiadiazol-2-yl)]-4-(2-oxaspiro[3.5]non-6-en-7-yl)-1H-indazol-6-yl}sulfonyl)amino]cyclopropanecarbonitrile]
≤ 100 nM | ≤ 100 nM | 1000 to 10000 nM | N#CC1(NS(=O)(=O)c2cc(N3CCN(C(=O)c4ccccn4)CC3)c3cnn(-c4nnc(C(F)F)s4)c3c2)CC1 [Example 87, 1-[({1-[5-(difluoromethyl)(1,3,4-thiadiazol-2-yl)]-4-[4-(2-pyridylcarbonyl)piperazinyl]-1H-indazol-6-yl}sulfonyl)amino]cyclopropanecarbonitrile]
≤ 100 nM | ≤ 100 nM | < 1000 nM | Cn1ccnc1N1CCN(c2cc(S(=O)(=O)NC3(C#N)CC3)cc3c2cnn3-c2nnc(C(F)F)s2)CC1 [Example 69, 1-[({1-[5-(difluoromethyl)(1,3,4-thiadiazol-2-yl)]-4-[4-(1-methylimidazol-2-yl)piperazinyl]-1H-indazol-6-yl}sulfonyl)amino]cyclopropanecarbonitrile]
1000 to 10000 nM | 1000 to 10000 nM | 20000 to 30000 nM | N#CC1(NS(=O)(=O)c2cc(C3CC3)c3cnn(-c4nnc(C(F)F)s4)c3c2)CC1 [Example 6, 1-[({1-[5-(difluoromethyl)(1,3,4-thiadiazol-2-yl)]-4-cyclopropyl-1H-indazol-6-yl}sulfonyl)amino]cyclopropanecarbonitrile]
≤ 100 nM | ≤ 100 nM | < 1000 nM | CC1(C(=O)N2CCN(c3cc(S(=O)(=O)NC4(C#N)CC4)cc4c3cnn4-c3nnc(C(F)F)s3)CC2)CCC1 [Example 112, 1-{[(1-[5-(difluoromethyl)(1,3,4-thiadiazol-2-yl)]-4-{4-[(methylcyclobutyl)carbonyl]piperazinyl}-1H-indazol-6-yl)sulfonyl]amino}cyclopropanecarbonitrile]
≤ 100 nM | ≤ 100 nM | < 1000 nM | CC(C)C(=O)N1CCN(c2cc(S(=O)(=O)NC3(C#N)CC3)cc3c2ccn3-c2nnc(C(F)F)s2)CC1 [Example 28, 1-[({1-[5-(difluoromethyl)(1,3,4-thiadiazol-2-yl)]-4-[4-(2-methylpropanoyl)piperazinyl]indol-6-yl}sulfonyl)amino]cyclopropanecarbonitrile]
100 to 300 nM | ≤ 100 nM | 1000 to 10000 nM | C[C@@H]1CN(c2cc(S(=O)(=O)NC3(C#N)CC3)cc3c2cnn3-c2nnc(C(F)F)s2)CCO1 [Example 26, 1-[({4-((2R)-2-methylmorpholin-4-yl)-1-[5-(difluoromethyl)(1,3,4-thiadiazol-2-yl)]-1H-indazol-6-yl}sulfonyl)amino]cyclopropanecarbonitrile]
